The target of assay [1] is PD-1/PD-L1 (Homo sapiens (Human), UniProt Q9NZQ7). Nature of the assay: PD-1/PD-L1 biochemical protein-protein interaction assay (ALPHA). In kind it is binding. The settings on record: read-out: IC50 PD-L1-PD1.
For assay [2], the target named is PD-L1 (Homo sapiens (Human), UniProt Q9NZQ7). As to the kind of experiment: PD-L1/PD-L1 dimerization biochemical protein-protein interaction assay (ALPHA). In kind it is binding. The settings on record: read-out: AC50 PDL1 Dimer 1 nM.
The mark [3] stands for this setting: 0.3 nM His tagged PD-L1, 2.5 nM biotinylated Fc-PD-1, Table 3B.
Where [4] appears, read: 0.5 nM His tagged PD-L1 and 0.5 nM FLAG tagged PD-L1, Table 4B.
The mark [5] stands for this setting: 0.3 nM His tagged PD-L1, 2.5 nM biotinylated Fc-PD-1, readings of 0.064 nM are equal to or less than 0.064 nM.
The mark [6] stands for this setting: 0.5 nM His tagged PD-L1 and 0.5 nM FLAG tagged PD-L1, Table 4A.

As a reminder, the IC50 is the concentration that gives 50% inhibition. As usually defined, the AC50 is the midpoint of the concentration-response curve, whichever way the signal moves.

Where two headings read alike, the source gives them in different places.

Sequence of PD-1/PD-L1 (Q9NZQ7 19-238): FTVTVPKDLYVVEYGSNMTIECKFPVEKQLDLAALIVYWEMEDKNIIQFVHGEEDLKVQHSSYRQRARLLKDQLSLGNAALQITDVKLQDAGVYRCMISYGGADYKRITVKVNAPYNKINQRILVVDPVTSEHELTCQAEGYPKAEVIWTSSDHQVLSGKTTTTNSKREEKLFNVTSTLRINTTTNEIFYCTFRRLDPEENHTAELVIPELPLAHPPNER
Sequence of PD-L1 (Q9NZQ7 19-238): as above
Sequence of PD-L1 (Q9NZQ7 19-238): as above

For `COc1nc(-c2cccc(-c3cccc4c3CC[C@@H]4Oc3nc(OC)c(CN4CC(C(=O)O)C4)nc3Cl)c2Cl)cnc1CNC[C@@H]1CCC(=O)N1` [B-44], the concentration for half-maximal inhibition (IC50) in assay [1] (setting [3]) was 0.064 nM. The AC50 in assay [2] (setting [4]) was determined as 17.9 nM.
Regarding `COc1cc(-c2cccc(-c3cccc4c3CC[C@@H]4Oc3nc(OC)c(CN4CC(C(=O)O)C4)cc3Cl)c2Cl)ccc1CNC[C@@H]1CCC(=O)N1` [B-42], in assay [1] (setting [3]), the half-inhibitory concentration (IC50) worked out at 0.064 nM. Also, the AC50 in assay [2] (setting [4]) was determined as 12.5 nM.
`COc1cc(N[C@H]2CCc3c(-c4cccc(-c5ccc(CNC[C@@H]6CCC(=O)N6)c(OC)n5)c4Cl)cccc32)c(C(F)(F)F)cc1CN1CC2(C(=O)O)CCC1CC2` [A-12]: in assay [1] (setting [5]), the concentration for half-maximal inhibition (IC50) was not above 0.064 nM. Moreover, in assay [2] (setting [6]), the AC50 came out at 26.4 nM.
As to `COc1nc(-c2cccc(-c3cccc4c3CC[C@@H]4Nc3nc(OC)c(CNCC(=O)O)nc3C(F)(F)F)c2Cl)ccc1CNC[C@H]1C[C@H](O)C1` [A-49], in assay [1] (setting [5]), the IC50 was not above 0.064 nM. For the same molecule, the AC50 in assay [2] (setting [6]) was found to be 10.7 nM.
On to `COc1nc(-c2cccc(-c3cccc4c3CC[C@@H]4Nc3nc(OC)c(CN4CC[C@@H](C(=O)O)C4)cc3Cl)c2Cl)ccc1CNC[C@@H]1CCC(=O)N1` [A-8], for which, in assay [1] (setting [5]), the IC50 was not above 0.064 nM. Also, the AC50 in assay [2] (setting [6]) was 79.7 nM.
`CNC(=O)CCNCc1ccc(-c2cccc(-c3cccc4c3CC[C@@H]4Oc3nc(OC)c(CNCCC(=O)NC)cc3Cl)c2Cl)nc1OC` [B-89]: the IC50 in assay [1] (setting [3]) is 0.387 nM. Also, the half-maximal activity concentration (AC50) in assay [2] (setting [4]) turned out to be 85 nM.
As for `COc1nc(-c2cccc(-c3cccc4c3CC[C@@H]4Nc3nc(OC)c(CNC(C)(C)C(=O)O)cc3C(F)(F)F)c2Cl)ccc1CN[C@H]1C[C@](C)(O)C1` [A-92], the IC50 in assay [1] (setting [5]) is not above 0.064 nM. In assay [2] (setting [6]), the half-maximal activity concentration (AC50) stood at 15.1 nM.
Take `COc1nc(-c2cccc(-c3cccc4c3CC[C@@H]4Nc3nc(OC)c(CN4CCC[C@@]4(C)C(=O)O)cc3C(F)(F)F)c2Cl)ccc1CNC[C@@H]1CCC(=O)N1` [A-39]: the IC50 in assay [1] (setting [5]) was not above 0.064 nM. Besides, in assay [2] (setting [6]), the AC50 was determined as 17.8 nM.
With `COc1nc(N[C@H]2CCc3c(-c4cccc(-c5ccc(CNC[C@@H]6CCC(=O)N6)c(OCC#N)n5)c4Cl)cccc32)c(C(F)(F)F)cc1CNC1(C(=O)O)CC1` [A-29], the IC50 in assay [1] (setting [5]) is not above 0.064 nM. Besides, in assay [2] (setting [6]), the AC50 came to 5.57 nM.
Regarding `COc1nc(-c2cccc(-c3cccc4c3CC[C@@H]4Oc3nc(OC)c(C(C)N4CC(C(=O)O)C4)cc3C(F)(F)F)c2Cl)ccc1CNC[C@@H]1CCC(=O)N1` (stereo partly shown) [B-119], in assay [1] (setting [3]), the 50% inhibitory concentration (IC50) amounted to 0.064 nM. Moreover, the half-maximal activity concentration (AC50) in assay [2] (setting [4]) was 24.5 nM.
With `CC[C@@](C)(NCc1cc(C(F)(F)F)c(O[C@H]2CCc3c(-c4cccc(-c5ccc(CNC[C@@H]6CCC(=O)N6)c(OC)n5)c4Cl)cccc32)nc1OC)C(=O)O` [B-235], the IC50 in assay [1] (setting [3]) is 0.064 nM. In addition, the AC50 in assay [2] (setting [4]) worked out at 2.42 nM.
The matching figures for `COc1cc(-c2cccc(-c3cccc4c3CC[C@@H]4Oc3nc(OC)c(CN4CC(C(=O)O)C4)cc3Cl)c2Cl)cc(F)c1CNC[C@@H]1CCC(=O)N1` [B-130]: 0.064 nM and 4.87 nM.
`COc1nc(-c2cccc(-c3cccc4c3CC[C@@H]4Nc3nc(OC)c(CN4CC(C)(O)C4)nc3C(F)(F)F)c2Cl)ccc1CN1CC[C@@H](C(=O)O)C1` [A-71]: the IC50 in assay [1] (setting [5]) is not above 0.064 nM. In addition, in assay [2] (setting [6]), the AC50 amounted to 52.4 nM.
`COc1nc(-c2cccc(-c3cccc4c3CC[C@@H]4Oc3nc(OC)c(CN4CC[C@@H](C(=O)O)C4)cc3Cl)c2C#N)ccc1CNC[C@@H]1CCC(=O)N1` [B-73]: the IC50 in assay [1] (setting [3]) is 0.064 nM. For the same molecule, the concentration at half-maximal activity (AC50) in assay [2] (setting [4]) came to 81.7 nM.
The matching figures for `COc1nc(-c2cccc(-c3cccc4c3CC[C@@H]4Oc3nc(OC)c(CN4C5CCC4(C(=O)O)CC5)cc3C(F)(F)F)c2Cl)ccc1CNC[C@@H]1CCC(=O)N1` [B-232]: 0.064 nM and 1.79 nM.
Consider `COc1nc(-c2cccc(-c3cccc4c3CC[C@@H]4Nc3nc(OC)c(CN4CC5CC(C(=O)O)C4C5)nc3C(F)(F)F)c2Cl)ccc1CNC[C@@H]1CCC(=O)N1` (stereo partly shown) [A-81], for which the IC50 in assay [1] (setting [5]) is not above 0.064 nM. Further, the half-maximal activity concentration (AC50) in assay [2] (setting [6]) stood at 23.1 nM.
On to `COc1nc(-c2cccc(-c3cccc4c3CC[C@@H]4Oc3nc(OC)c(CN4C[C@H]5C[C@]4(C(=O)O)[C@H]5C)cc3Cl)c2Cl)ccc1CNC[C@@H]1CCC(=O)N1` [B-180], for which, in assay [1] (setting [3]), the IC50 was determined as 0.064 nM. For the same molecule, the AC50 in assay [2] (setting [4]) was 12.5 nM.
As to `COc1nc(O[C@H]2CCc3c(-c4cccc(-c5cc(C)c(CN6CC(C)(O)C6)c(OC)n5)c4Cl)cccc32)c(Cl)cc1CN1CC[C@@H](C(=O)O)C1` [B-58], the IC50 in assay [1] (setting [3]) came to 0.064 nM. Also, in assay [2] (setting [4]), the half-maximal activity concentration (AC50) was determined as 49.7 nM.
Regarding `CNC(=O)C1CCN(Cc2cc(Cl)c(O[C@H]3CCc4c(-c5cccc(-c6ccc(CN7CC(C)(O)C7)c(OC)n6)c5Cl)cccc43)nc2OC)C1` (stereo partly shown) [B-86], the IC50 in assay [1] (setting [3]) came to 0.235 nM. For the same molecule, in assay [2] (setting [4]), the concentration at half-maximal activity (AC50) was 109 nM.
Regarding `COc1nc(-c2cccc(-c3cccc4c3CC[C@@H]4Nc3nc(OC)c(CN4CC[C@@](C)(C(=O)O)C4)cc3C(F)(F)F)c2Cl)ccc1CNC[C@@H]1CCC(=O)N1` [A-2, (R)-1-((6-(((S)-4-(2-chloro-3-(6-methoxy-5-(((((S)-5-oxopyrrolidin-2-yl)methyl)amino)methyl)pyridin-2-yl)phenyl)-2,3-dihydro-1H-inden-1-yl)amino)-2-methoxy-5-(trifluoromethyl)pyridin-3-yl)methyl)-3-methylpyrrolidine-3-carboxylic acid], the IC50 in assay [1] (setting [5]) was not above 0.064 nM. Moreover, the concentration at half-maximal activity (AC50) in assay [2] (setting [6]) is 13.5 nM.
Regarding `COc1nc(-c2cccc(-c3cccc4c3CC[C@@H]4Oc3nc(OCC#N)c(CNC4(C(=O)O)CC4)cc3C(F)(F)F)c2Cl)ccc1CNC[C@@H]1CCC(=O)N1` [B-22], in assay [1] (setting [3]), the IC50 was 0.074 nM. The concentration at half-maximal activity (AC50) in assay [2] (setting [4]) stood at 13.4 nM.
On to `COc1nc(-c2cccc(-c3cc(F)cc4c3CC[C@@H]4Oc3nc(OC)c(CN4CC5(C(=O)O)CCC4CC5)cc3C(F)(F)F)c2Cl)ccc1CNC[C@@H]1CCC(=O)N1` [B-216], for which, in assay [1] (setting [3]), the IC50 was found to be 0.064 nM. For the same molecule, the concentration at half-maximal activity (AC50) in assay [2] (setting [4]) worked out at 20.1 nM.
With `COc1nc(-c2cccc(-c3cccc4c3CC[C@@H]4Oc3nc(OC)c(CN4C[C@H]5C[C@@]5(C(=O)O)C4)cc3C(F)(F)F)c2Cl)ccc1CNC[C@@H]1CCC(=O)N1` [B-198], the half-maximal inhibitory concentration (IC50) in assay [1] (setting [3]) was 0.064 nM. In addition, the AC50 in assay [2] (setting [4]) stood at 15.3 nM.
With `COc1nc(O[C@H]2CCc3c(-c4cccc(-c5ccc(CNC[C@@H]6CCC(=O)N6)c(OCC#N)n5)c4Cl)cccc32)c(Cl)cc1CNC1(C(=O)O)CC1` [B-14], the 50% inhibitory concentration (IC50) in assay [1] (setting [3]) amounted to 0.064 nM. For the same molecule, the AC50 in assay [2] (setting [4]) is 15.7 nM.
On to `COc1nc(-c2cccc(-c3cccc4c3CC[C@@H]4Oc3nc(OC)c(CN4CCC(C)(C(=O)O)CC4)cc3Cl)c2Cl)ccc1CNC[C@@H]1CCC(=O)N1` [B-178], for which, in assay [1] (setting [3]), the IC50 amounted to 0.064 nM. In addition, the AC50 in assay [2] (setting [4]) is 21.5 nM.
For `COc1nc(-c2cccc(-c3cccc4c3CC[C@@H]4Nc3nc(OC)c(CNC(C)(C)C(=O)O)cc3C(F)(F)F)c2Cl)ccc1CNC[C@@H]1CCC(=O)N1` [A-40], the half-maximal inhibitory concentration (IC50) in assay [1] (setting [5]) was not above 0.064 nM. In addition, the half-maximal activity concentration (AC50) in assay [2] (setting [6]) was 6.81 nM.
In the case of `COc1nc(-c2cccc(-c3cccc4c3CC[C@@H]4Oc3nc(OC)c(CN4CC5(C(=O)O)CCC4CC5)cc3Cl)c2Cl)ccc1CN[C@H]1CCCC[C@H]1O` [B-50], in assay [1] (setting [3]), the 50% inhibitory concentration (IC50) is 0.064 nM. For the same molecule, the AC50 in assay [2] (setting [4]) was found to be 26.1 nM.
As to `COc1cc(-c2cccc(-c3cccc4c3CC[C@@H]4Oc3nc(OC)c(CNC4(C(=O)O)CC4)cc3C(F)(F)F)c2Cl)ccc1CNC[C@@H]1CCC(=O)N1` [B-122], the IC50 in assay [1] (setting [3]) was found to be 0.064 nM. In addition, the AC50 in assay [2] (setting [4]) came out at 2.65 nM.
`COc1nc(O[C@H]2CCc3c(-c4cccc(-c5cc(C)c(CNC[C@@H]6CCC(=O)N6)c(OC)n5)c4Cl)cccc32)c(C)cc1CNC1(C(=O)O)CC1` [B-244]: the IC50 in assay [1] (setting [3]) turned out to be 0.064 nM. The AC50 in assay [2] (setting [4]) amounted to 18 nM.

The values are drawn from patent US10774071B2, “PD-1/PD-L1 inhibitors” (Gilead Sciences, Inc., priority 2018, dated 2020).
